In assay [1] the test system is anti-17β-estradiol antibody. Put plainly: Bioactive microarray binding profile, anti-17β-estradiol antibody. Also noted: species or system rabbit. As to conditions: anti-17β-estradiol then labeled secondary antibody; replicate arrays. The procedure: (§1) To investigate the suitability of our approach for printing compounds that have not been intentionally synthesized with appendages for covalent capture, more than 300 commercially available bioactive compounds were printed onto isocyanate-functionalized slides. We screened these bioactive microarrays using rabbit primary antibodies against corticosterone, digitoxin, and 17β-estradiol, followed by a fluor-labeled goat anti-rabbit secondary antibody. The signal-to-noise ratio (SNR) was determined by calculating intensity at 635 nm and adjusting for local background for each feature on replicate arrays, and data were compared to replicate control arrays incubated with the labeled secondary antibody alone (FIG. 4). […] In the anti-corticosterone antibody binding profile, hydrocortisone (mean SNR 68.9), beclomethasone (63.3), and corticosterone (59.2), corticosteroids related in structure, scored as positives. […] 17β-estradiol (mean SNR 9.0), estriol (8.7) and estrone (7.3), primary estrogenic hormones varying in the number of reactive groups for capture, scored as positives in the anti-17β-estradiol binding profile.
(§2) Small-molecule microarray profiles with antibodies against natural products. […] Arrays were dried by centrifugation and scanned for fluorescence at 635 nm. Signal-to-noise ratio was calculated for each feature using adjusted diameters.

The next assay deals with FKBP12 (Homo sapiens, UniProt P62942). Conditions: affinity of AP1497 for FKBP12; cited from earlier work.
A further assay deals with T1, FKBP12-6xHis (Homo sapiens, UniProt P62942).
T1 construct: made in house
As to conditions: Table 1; cited from earlier work.

Another assay has as its system anti-digitoxin antibody. Briefly: Bioactive microarray binding profile, anti-digitoxin antibody. Conditions: anti-digitoxin then labeled secondary antibody; replicate arrays. Details: species or system rabbit. The procedure: We screened these bioactive microarrays using rabbit primary antibodies against corticosterone, digitoxin, and 17β-estradiol, followed by a fluor-labeled goat anti-rabbit secondary antibody. The signal-to-noise ratio (SNR) was determined by calculating intensity at 635 nm and adjusting for local background for each feature on replicate arrays, and data were compared to replicate control arrays incubated with the labeled secondary antibody alone (FIG. 4).
Microarrays printed with natural products and bioactives were incubated with various antibodies to detect specific compounds. In the first incubation step, arrays were incubated with 300 μL of one of the following: PBST buffer (control), a 1:500 solution of rabbit anti-corticosterone whole antiserum in PBST, 1:500 solution of rabbit anti-17β-estradiol whole antiserum in PBST for 30 min at room temperature. The arrays were briefly rinsed with PBST and then washed twice in PBST. All arrays were then incubated with 300 μL of a 1:1000 solution of Alexa Fluor® 647 […] polyclonal secondary antibody in PBST for 30 min at room temperature. Probed arrays were rinsed in PBST, washed three times in PBST, and washed once in PBS. Arrays were dried by centrifugation and scanned for fluorescence at 635 nm. Signal-to-noise ratio was calculated for each feature using adjusted diameters.

The subject of assay [2] is Alexa Fluor 647 goat-anti-rabbit IgG. Put plainly: Bioactive microarray control, labeled secondary antibody alone. Conditions: labeled polyclonal secondary antibody alone. The class given is binding. The procedure: as §1, §2
In assay [3] the test system is anti-corticosterone antibody. Put plainly: Bioactive microarray binding profile, anti-corticosterone antibody. Conditions: anti-corticosterone then Alexa Fluor 647 goat-anti-rabbit; replicate arrays. As for the experimental part:
as §1, with “4). Six bioactives, with signal-to-noise ratios>3.0, were found in replicate arrays to bind to the labeled polyclonal secondary antibody alone. None of the compounds were autofluorescent at 635 nm as judged by arrays probed with PBS buffer alone (data not shown). Hygromycin B, an aminoglycoside antibiotic, gave the highest adjusted signal-to-noise ratio (mean SNR 47.6).” for “4).”
Small-molecule microarray profiles with antibodies against natural products. Microarrays printed with natural products and bioactives were incubated with various antibodies to detect specific compounds. […] Arrays were dried by centrifugation and scanned for fluorescence at 635 nm. Signal-to-noise ratio was calculated for each feature using adjusted diameters.

Consider 11 compounds from patent US20090221433A1, “SMALL MOLECULE PRINTING” (priority 2006, published 2009).

The term Kd denotes the equilibrium constant for the complex coming apart.

Sequence of FKBP12 (P62942 whole entry, species assumed): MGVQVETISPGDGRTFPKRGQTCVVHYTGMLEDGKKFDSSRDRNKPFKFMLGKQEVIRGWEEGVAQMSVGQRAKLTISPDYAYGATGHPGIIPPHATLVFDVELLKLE
T1 sequence (P62942 whole entry): as the sequence (P62942 whole entry, species assumed) above

In the case of `C[C@]12CC[C@@H]3c4ccc(O)cc4CC[C@H]3[C@@H]1CC[C@@H]2O` [17β-estradiol], the “mean SNR (signal-to-noise ratio at 635 nm)” value in assay [1] came to 9.0. In the case of AP1497, the figures for the Kd at FKBP12 and on FKBP12-6xHis were 8.8 nM and 18 nM, respectively.

On to `C[C@@H]1O[C@@H](O[C@H]2CC[C@]3(C=O)[C@H]4CC[C@]5(C)[C@@H](C6=CC(=O)OC6)CC[C@]5(O)[C@@H]4CC[C@]3(O)C2)[C@H](O)[C@H](O)[C@H]1O` [convallatoxin], for which the “mean SNR (signal-to-noise ratio at 635 nm)” value with anti-digitoxin antibody is listed as 52.7. On the same count and under the same terms, the value for `C[C@]12CC[C@H](O)C[C@H]1CC[C@@H]1[C@@H]2CC[C@]2(C)[C@@H](C3=CC(=O)OC3)[C@@H](O)C[C@]12O` [Gitoxigenin] was 62.5; that for `CC(=O)O[C@H]1C[C@H](O[C@H]2[C@@H](O)C[C@H](O[C@H]3[C@@H](O)C[C@H](O[C@H]4CC[C@@]5(C)[C@H](CC[C@@H]6[C@@H]5C[C@@H](O)[C@]5(C)[C@@H](C7=CC(=O)OC7)CC[C@]65O)C4)O[C@@H]3C)O[C@@H]2C)O[C@H](C)[C@H]1O[C@@H]1O[C@H](CO)[C@@H](O)[C@H](O)[C@H]1O` [lanatoside C] was 24.0. For the compound `C[C@]12CC[C@@H]3c4ccc(O)cc4CC[C@H]3[C@@H]1C[C@@H](O)[C@@H]2O` [estriol], in assay [1], the “mean SNR (signal-to-noise ratio at 635 nm)” value was determined as 8.7. `C[C@H]1O[C@@H](O[C@H]2[C@@H](O)C[C@H](O[C@H]3[C@@H](O)C[C@H](O[C@H]4CC[C@@]5(C)[C@H](CC[C@@H]6[C@@H]5CC[C@]5(C)[C@@H](C7=CC(=O)OC7)CC[C@]65O)C4)O[C@@H]3C)O[C@@H]2C)C[C@H](O)[C@@H]1O` [digitoxin]: the “mean SNR (signal-to-noise ratio at 635 nm)” value in the assay with anti-digitoxin antibody amounted to 15.1. For the compound `CN[C@H]1C[C@@H](N)[C@H](O)[C@@H](O[C@@H]2O[C@H](CO)[C@H](O)[C@@H]3OC4(O[C@H]23)O[C@H]([C@@H](N)CO)[C@H](O)[C@H](O)[C@H]4O)[C@@H]1O` (stereo partly drawn) [Hygromycin B], in assay [2], the “adjusted signal-to-noise ratio (mean SNR)” value was found to be 47.6. `C[C@]12C[C@H](O)[C@H]3[C@@H](CCC4=CC(=O)CC[C@@]43C)[C@@H]1CC[C@@H]2C(=O)CO` [corticosterone]: in assay [3], the “mean SNR (signal-to-noise ratio at 635 nm)” value was 59.2. Regarding `C[C@H]1C[C@H]2[C@@H]3CCC4=CC(=O)C=C[C@]4(C)[C@@]3(Cl)[C@@H](O)C[C@]2(C)[C@@]1(O)C(=O)CO` [beclomethasone], the “mean SNR (signal-to-noise ratio at 635 nm)” value in assay [3] is 63.3.

As for `C[C@]12CCC(=O)C=C1CC[C@@H]1[C@@H]2[C@@H](O)C[C@@]2(C)[C@H]1CC[C@]2(O)C(=O)CO` [hydrocortisone], the “mean SNR (signal-to-noise ratio at 635 nm)” value in assay [3] amounted to 68.9.
